Results published in patent US8455435B2, “Remedies for ischemia” (Ludwig-Maximilians-Universitat Munchen, priority 2006, dated 2013).
Values joined by “and” are separate entries in the source; they are usually repeats but may differ in a detail not shown here. Identical values can stand only once.

Tests used:
[1] = system: CD45+/CD34+ and CD45+/CD34- cell populations in bone marrow; experiment: Flow cytometry of bone marrow cells after PTH or G-CSF in healthy mice; format: in vivo, C57BL/6 mice
Experimental: For the experiments healthy age- and sex-matched (male, 8-12 weeks of age) C57BL/6 mice (Charles River) were used. Animal care and all experimental procedures were performed in strict accordance to the German and National Institutes of Health animal legislation guidelines and were approved by the local animal care and use committees.
(§1) Mice were divided into the following groups: 1) administration of saline daily for 6 days, sacrificed at day 7 (n=6). 2) administration of PTH (Bachem) daily for 6 consecutive days (80 μg per kg body weight per day, intraperitoneally), sacrificed at day 7 (n=6). 3) administration of PTH daily for 14 consecutive days, sacrificed at day 15 (n=6). 4) administration of G-CSF (Amgen Biologicals) daily for 5 consecutive days (200 μg per kg body weight per day, intraperitoneally), sacrificed at day 6 (n=6).
at day 6, 1 ml of peripheral blood was harvested from each mouse by aspirating the carotid artery. Bone marrow cells were obtained by flushing the tibias and femurs from the euthanized mice. Mononuclear cells were separated by density-gradient centrifugation using 1.077 g/mL Histopaque solution (Sigma Chemicals), purified and resuspended in phosphate-buffered saline (PBS) containing 1% bovine serum albumin. Cells were incubated for 40 minutes in the dark at 4° C. with following fluorescein-isothiocyanate (FITC), phycoerythrin (PE), and peridinin-chlorphyll-protein (PerCP) conjugated monoclonal antibodies: CD45-PerCP, C34-FITC, CD31-PE, Sca-1-PE and c-kit-PE (all from BD Pharmingen). Isotype-identical antibodies (BD Pharmingen) served as controls. Cells were analyzed by 3-color flow cytometry using a Coulter® Epics® XL-MCL™ flow cytometer (Beckman Coulter). Each analysis included 20000 events. The absolute number of antigen-positive cells per ml of whole blood was calculated by multiplying the percentage of antigen-positive cells with the total number of mononuclear cells per ml of blood detected by the conventional hematological cell analyzer. The number of lymphocytes together with the number of monocytes comprised the total number of mononuclear cells.

infarcted left ventricle = experiment: Histology: infarct size, wall thickness, infarct composition after MI, PTH treatment; format: in vivo, C57BL/6 mice; settings: for LV-infarct size (area of necrosis and granulation tissue): day 6, % of total LV area
Experimental: Myocardial infarction was induced in male C57BL/6 mice 8-12 weeks of age by surgical occlusion of the left anterior descending artery (LAD) through a left anterolateral approach. Mice were anesthetized by intraperitoneal injection of a mixture of 100 mg/kg ketamine (Sigma Chemical Co., St. Louis, Mo.) and 5 mg/kg Xylazine (Sigma), intubated and artificially ventilated by a mouse ventilator (HUGO SACHS, March, Germany) with 200 strokes/min and 200 μl/stroke. Animal care and all experimental procedures were performed in strict accordance to the German and National Institutes of Health animal legislation guidelines and were approved by the local animal care and use committees.
(§2) After occlusion of the LAD, mice were divided into the following groups 1) subcutaneous administration of saline daily for 5 days, sacrificed at day 6 (n=10) and day 30 (n=15); 2) administration of rat PTH (1-34) daily for 5 and 14 consecutive days (80 μg/kg/d s.c., Bachem), sacrificed at day 6 (n=9) and day 30 (n=15); 3) sham operated animals sacrificed at day 30 (n=5), and not operated control animals receiving saline (n=6) sacrificed at day 6 and at day 30. All animals received BrdU ([…]) for 5 consecutive days. BrdU and cytokine treatment were started 12-24 hours after LAD occlusion.
(§3) At day 6 (n=10) and day 30 (n=10), hearts were excised. After fixation in 4% phosphate buffered formalin the hearts were cut transversally into 2 mm thick slices and embedded in paraffin. 4 μm thick sections were cut and mounted on positively charged glass slides. Standard histological procedures (hematoxilin/eosin and Masson trichrome) and immunostaining (see below) were performed.
Infarct size was determined as area of infarction (Al) correlated to the area of the left ventricle (including LV-septum) in four different slices from the base to the apex of a heart. Total infarct size was calculated by multiplication of the mean percentage value of the circular infarct area with the quotient: vertical extension of the infarct area/total ventricular extension. Wall thickness was measured by taking the average length of five segments along radii from the centre of the left ventricle through the thinnest points of the free LV wall and the septal wall. All studies were performed by a blinded pathologist.

[2] = system: BrdU and Ki67 positive cells; experiment: Immunohistochemistry of cell proliferation (BrdU, Ki67) after MI, PTH treatment; format: in vivo, C57BL/6 mice
Experimental: as §2, §3
For immunostaining mounted tissue sections were deparaffinized by rinsing 3×5 minutes in xylene followed by 2×5 minutes 100%, 2×5 minutes 96%, and 2×5 minutes 70% ethanol rinses. Endogenous peroxidases were quenched in 7.5% H2O2 in distilled water for 10 minutes. After rinsing in distilled water for 10 minutes and 2×5 minutes in TRIS-Buffer, pH 7.5, the slides were incubated at room temperature for 60 minutes with following primary antibodies: CD45 (rat anti-mouse, BD Pharmingen), ICAM-1 (goat anti-mouse, R&D), CD34 (rat anti-mouse, Linaris), Ki67 (goat anti-mouse, Santa Cruz) or BrdU (mouse monoclonal anti-BrdU, BD Pharmingen). Pre-treatment was performed for 30 minutes (microwave 750 W) using TRS 6 (Dako) for CD45, Glykol (biologo) for CD34, Retrievagen A (BD Pharmingen) for BrdU, and citrate buffer (10 mM, pH 6.0) for Ki67.
For detection of the immunoreaction Avidin-Biotinylated enzyme Comlex-Rat IgG, Avidin-Biotinylated enzyme Comlex-Goat IgG (both from Vector) or rabbit anti-goat IgG (DAKO) were used. Aminoethylcarbazol was used as chromogen (incubation 10 minutes). Thereafter, the slides were rinsed in running water and counterstained with hematoxilin Gill's Formula (Vector). Cover slides were mounted with Kaiser's glycerol gelatine. Doublestaining was performed for CD31 and Ki67 using an Avidin-Biotinylated enzyme Comlex-Goat IgG detection system and diaminobenzidine as chromogen and the APAAP-Rat system and chromogen red (all from Dako), respectively.
Quantitative assessments: a) granulation tissue: the number of BrdU and Ki76 positive nuclei were related to the total number of nuclei quantified in the granulation tissue. b) arterioles: only arterioles with high proliferative activity were enclosed.

SCF = SCF serum level by ELISA after PTH; format: in vivo, C57BL/6 mice; settings: day 6 of PTH stimulation
Experimental: as §1
G-CSF and SCF serum levels were determined by ELISA (Mouse G-CSF and Mouse SCF, RayBiotech).

[3] = system: CD45/Sca-1 and CD45/CD34 positive stem cells; experiment: PTH induced migration of CD45+ stem cells to the ischemic heart; format: in vivo, mice; settings: 48 hours after myocardial ischemia
SDF-1 = SDF-1 expression in ischemic myocardium after PTH treatment; format: in vivo, mice; settings: 48 hours after PTH treatment

rat PTH (1-34)
subtypes of CD45+/CD34- cells in bone marrow ([1]; PTH day 6, G-CSF): significant decrease | subtypes of CD45+CD34+ cells in bone marrow ([1]; PTH day 6 or day 14, G-CSF vs control group): no significant change | anterior (free LV) wall thickness (infarcted left ventricle; day 6): 0.58 mm | cellular density in the granulation tissue (infarcted left ventricle; day 6): 3317±171 /mm^2 | LV-infarct size (area of necrosis and granulation tissue) (infarcted left ventricle): 37% | LV-infarct size (area of necrosis and granulation tissue) (infarcted left ventricle; listed as rPTH(1-34)): 37.3±4.9% | anterior (free LV) wall thickness (infarcted left ventricle; day 30): 0.22 mm | frequency of large LV-aneurysms (infarcted left ventricle; day 30, vs saline): lower frequency | infarct size (area of fibrosis) (infarcted left ventricle; day 30 after LAD occlusion): 23.3±4.6% and 23% | BrdU positive cells within the granulation tissue ([2]; 6 days after MI): 72.1±2.4% | Ki67 and BrdU positive cells within the remote area ([2]; 6 days after MI): less than 1% | Ki67 positive cells within the granulation tissue ([2]; 6 days after MI): 34.8±4.8% | Ki67 positive endothelial cells associated with CD31 positive arterioles ([2]; compared to saline treated animals): high numbers | BrdU positive cells in the periinfarct region ([2]; day 30): 99.1±25.0 /mm^2 | serum level of SCF (SCF): 594.6 ± 26.8 pg/mL | migration of CD45/Sca-1 and CD45/CD34 positive stem cells to the heart [3]: enhanced migration | homing factor SDF-1 in the ischemic myocardium (SDF-1): upregulated
